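Method: 48-hour compound exposure of cells in 96-well plates, five concentrations, linear interpolation of endpoints. Abbreviation: GI50, concentration required for 50% inhibition of growth.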 Calls of active or inactive are those of the source. Rule as the data show it: active = GI50 up to about 1.1 µM and inactive = higher.
How the values were obtained:
Test in all cases: NCI-60 cell line screen, 48 h
COLO 205 = test system: COLO 205
OVCAR-3 = test system: OVCAR-3
HCT-116 = test system: HCT-116
SK-MEL-28 = test system: SK-MEL-28
OVCAR-5 = test system: OVCAR-5
HL-60 = test system: HL-60
SK-MEL-2 = test system: SK-MEL-2
DMS-114 = test system: DMS-114
CCRF-CEM = test system: CCRF-CEM
HCT-15 = test system: HCT-15
SN12C = test system: SN12C
UACC-62 = test system: UACC-62
SR = test system: SR
EKVX = test system: EKVX
OVCAR-4 = test system: OVCAR-4
SNB-19 = test system: SNB-19
Malme-3M = test system: Malme-3M
DLD-1 = test system: DLD-1
SW-620 = test system: SW-620
MOLT-4 = test system: MOLT-4
NCI-H23 = test system: NCI-H23
SK-MEL-5 = test system: SK-MEL-5
LXFL 529 = test system: LXFL 529
M14 = test system: M14
ACHN = test system: ACHN
SF-539 = test system: SF-539
HOP-18 = test system: HOP-18
KM-20L2 = test system: KM-20L2
K562 = test system: K562
U-251 = test system: U-251
UACC-257 = test system: UACC-257
IGROV-1 = test system: IGROV-1
DMS-273 = test system: DMS-273
NCI-H226 = test system: NCI-H226
A549 = test system: A549
SF-268 = test system: SF-268
SK-OV-3 = test system: SK-OV-3
HT-29 = test system: HT-29
HCC 2998 = test system: HCC 2998
NCI-H460 = test system: NCI-H460
OVCAR-8 = test system: OVCAR-8
CAKI-1 = test system: CAKI-1
SF-295 = test system: SF-295
SNB-75 = test system: SNB-75
NCI-H522 = test system: NCI-H522
HOP-92 = test system: HOP-92
RXF 393 = test system: RXF 393
HOP-62 = test system: HOP-62
M19-MEL = test system: M19-MEL
786-0 = test system: 786-0
SNB-78 = test system: SNB-78
KM12 = test system: KM12
TK-10 = test system: TK-10
RPMI-8226 = test system: RPMI-8226
XF498 = test system: XF498
LOX IMVI = test system: LOX IMVI
UO-31 = test system: UO-31
A498 = test system: A498
RXF 631 = test system: RXF 631

C/C(=N\NC(=N)N)C(CN1CCOCC1)C(c1ccccc1)c1c(O)c2ccccc2oc1=O (stereo not drawn)
GI50 (COLO 205): 49.4 µM (inactive) | GI50 (OVCAR-3): > 100 µM (inactive) | GI50 (HCT-116): 90.6 µM (inactive) | GI50 (SK-MEL-28): > 100 µM (inactive) | GI50 (OVCAR-5): > 100 µM (inactive) | GI50 (HL-60): 49.1 µM (inactive) | GI50 (SK-MEL-2): > 100 µM (inactive) | GI50 (DMS-114): 45.8 µM (inactive) | GI50 (CCRF-CEM): > 100 µM (inactive) | GI50 (HCT-15): > 100 µM | GI50 (SN12C): > 100 µM (inactive) | GI50 (UACC-62): 81.3 µM (inactive) | GI50 (SR): 80 µM (inactive) | GI50 (EKVX): > 100 µM (inactive) | GI50 (OVCAR-4): 61.9 µM (inactive) | GI50 (SNB-19): > 100 µM (inactive) | GI50 (Malme-3M): 25.9 µM (inactive) | GI50 (DLD-1): > 100 µM (inactive) | GI50 (SW-620): > 100 µM (inactive) | GI50 (MOLT-4): 66.2 µM (inactive) | GI50 (NCI-H23): 76.7 µM (inactive) | GI50 (SK-MEL-5): > 100 µM (inactive) | GI50 (LXFL 529): > 100 µM (inactive) | GI50 (M14): > 100 µM (inactive) | GI50 (ACHN): > 100 µM (inactive) | GI50 (SF-539): 77.6 µM (inactive) | GI50 (HOP-18): > 100 µM (inactive) | GI50 (KM-20L2): > 100 µM (inactive) | GI50 (K562): > 100 µM (inactive) | GI50 (U-251): > 100 µM (inactive) | GI50 (UACC-257): > 100 µM (inactive) | GI50 (IGROV-1): > 100 µM (inactive) | GI50 (DMS-273): > 100 µM (inactive) | GI50 (NCI-H226): > 100 µM (inactive) | GI50 (A549): > 100 µM (inactive) | GI50 (SF-268): > 100 µM (inactive) | GI50 (SK-OV-3): > 100 µM (inactive) | GI50 (HT-29): > 100 µM (inactive) | GI50 (HCC 2998): > 100 µM (inactive) | GI50 (NCI-H460): > 100 µM (inactive) | GI50 (OVCAR-8): > 100 µM (inactive) | GI50 (CAKI-1): > 100 µM (inactive) | GI50 (SF-295): > 100 µM (inactive) | GI50 (SNB-75): 24.9 µM (inactive) | GI50 (NCI-H522): > 100 µM (inactive) | GI50 (HOP-92): 25.7 µM (inactive) | GI50 (RXF 393): 29 µM (inactive) | GI50 (HOP-62): > 100 µM (inactive) | GI50 (M19-MEL): > 100 µM (inactive) | GI50 (786-0): > 100 µM (inactive) | GI50 (SNB-78): 50.8 µM (inactive) | GI50 (KM12): > 100 µM (inactive) | GI50 (TK-10): > 100 µM (inactive) | GI50 (RPMI-8226): 85.9 µM (inactive) | GI50 (XF498): > 100 µM (inactive) | GI50 (LOX IMVI): > 100 µM (inactive)

CN1CCN(C)C1c1cccc(C2N(C)CCN2C)c1
GI50 (COLO 205): > 100 µM (inactive) | GI50 (OVCAR-3): > 100 µM (inactive) | GI50 (HCT-116): > 100 µM (inactive) | GI50 (SK-MEL-28): > 100 µM (inactive) | GI50 (OVCAR-5): > 100 µM (inactive) | GI50 (HL-60): > 100 µM (inactive) | GI50 (SK-MEL-2): > 100 µM (inactive) | GI50 (DMS-114): > 100 µM (inactive) | GI50 (CCRF-CEM): > 100 µM (inactive) | GI50 (HCT-15): > 100 µM | GI50 (SN12C): > 100 µM (inactive) | GI50 (UACC-62): > 100 µM (inactive) | GI50 (OVCAR-4): > 100 µM (inactive) | GI50 (SNB-19): > 100 µM (inactive) | GI50 (DLD-1): > 100 µM (inactive) | GI50 (MOLT-4): > 100 µM (inactive) | GI50 (NCI-H23): > 100 µM (inactive) | GI50 (LXFL 529): > 100 µM (inactive) | GI50 (M14): > 100 µM (inactive) | GI50 (ACHN): > 100 µM (inactive) | GI50 (SF-539): > 100 µM (inactive) | GI50 (UO-31): > 100 µM (inactive) | GI50 (KM-20L2): > 100 µM (inactive) | GI50 (K562): 46.2 µM (inactive) | GI50 (U-251): > 100 µM (inactive) | GI50 (IGROV-1): > 100 µM (inactive) | GI50 (DMS-273): > 100 µM (inactive) | GI50 (NCI-H226): > 100 µM (inactive) | GI50 (SF-268): > 100 µM (inactive) | GI50 (SK-OV-3): > 100 µM (inactive) | GI50 (HT-29): > 100 µM (inactive) | GI50 (HCC 2998): > 100 µM (inactive) | GI50 (NCI-H460): > 100 µM (inactive) | GI50 (SF-295): > 100 µM (inactive) | GI50 (A498): > 100 µM (inactive) | GI50 (SNB-75): 48.2 µM (inactive) | GI50 (NCI-H522): > 100 µM (inactive) | GI50 (HOP-92): > 100 µM (inactive) | GI50 (RXF 393): > 100 µM (inactive) | GI50 (HOP-62): > 100 µM (inactive) | GI50 (M19-MEL): > 100 µM (inactive) | GI50 (RXF 631): > 100 µM (inactive) | GI50 (786-0): > 100 µM (inactive) | GI50 (SNB-78): > 100 µM (inactive) | GI50 (KM12): > 100 µM (inactive) | GI50 (RPMI-8226): > 100 µM (inactive) | GI50 (LOX IMVI): > 100 µM (inactive)

Source: ChEMBL document CHEMBL1201862, “PubChem BioAssay data set” (2004)
